The record followed here is patent US11072598B2, “Somatostatin modulators and uses thereof” (CRINETICS PHARMACEUTICALS, INC., priority 2017, dated 2021).

Molecules are shown by their SMILES.

Assay [1] addresses T1, human somatostatin receptor subtype 2 (Homo sapiens, UniProt P30874).
T1 construct: expressed in transfected cells
Briefly: cAMP functional assay for SSTR2 agonists. The note with it: inhibition of cAMP activities via human SST2 receptor (SSTR2), CHO-K1 cells; read-out: EC50. The format is cell-based. In outline: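 CHO-K1 cells stably expressing human SSTR2 were treated for 20 min at 37 °C with compound plus NKH477 (added as 1.6 μM) in HBSS with IBMX. Intracellular cAMP was measured by HTRF against a standard curve. EC50 values came from concentration-response curves.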

For a further assay, the target named is T2, hSSTR4 (Homo sapiens, UniProt P31391).
T2 construct: expressed in transfected cells
The assay is described as follows: inhibition of cAMP via hSSTR4. The note with it: selectivity for inhibition of cAMP via hSSTR2 vs. hSSTR4. The format is cell-based. The source says:
General overview: All five SSTR subtypes are Gi coupled G-protein coupled receptors (GPCRs) that lead to decreases in intracellular cyclic AMP (cAMP) when activated by an agonist. Therefore, measurement of intracellular cAMP levels can be used to assess whether compounds of the invention are agonists of SSTR subtypes (John Kelly, Troy Stevens, W. Joseph Thompson, and Roland Seifert, Current Protocols in Pharmacology, 2005, 2.2.1-2.2). One example of an intracellular cAMP assay is described below. cAMP assay protocol:
Four days prior to the assay, 5,000 Chinese hamster ovary cells (CHO-K1, ATCC #CCL-61) stably expressing the human somatostatin receptor subtype 2 are plated in each well of a 96-well tissue culture-treated plate in Ham's F12 growth media (ThermoFisher #10-080-CM) supplemented with 10% donor bovine serum (Gemini Bio-Products #100-506), 100 U/mL penicillin; 100 ug/mL streptomycin; 2 mM L-glutamine (Gemini Bio-Products #400-110) and 0.2 mg/mL hygromycin B (GoldBio #31282-04-9). The cells are cultured at 37° C., 5% CO2 and 95% humidity. On the day of the assay, the media is aspirated and the cells are treated with 50 μL of 1.6 μM NKH477 (Sigma #N3290) plus various dilutions of compounds of the invention in assay buffer [1× Hank's Balanced Salt Solution (ThermoFisher #SH3058802), 0.5 mM HEPES pH 7.4, 0.1% bovine serum albumin, 0.2 mM 3-Isobutyl-1-methylxanthine (IBMX, VWR #200002-790)]. The cells are incubated for 20 minutes at 37° C. (the final concentration of the compounds of the invention are typically 0-10,000 nM). The cells are treated with 50 μL of lysis buffer (HRTF cAMP kit, Cisbio). The lysate is transferred to 384-well plates and cAMP detection and visualization antibodies are added and incubated for 1-24 hours at room temperature. The time-resolved fluorescent signal is read with a Tecan M1000Pro multiplate reader. The intracellular cAMP concentrations are calculated by regression to a standard curve and are plotted vs. the concentration of the compounds of the invention and the EC50 of the compounds are calculated using standard methods. All data manipluations are in GraphPad Prism v6.

T2 sequence (P31391 whole entry): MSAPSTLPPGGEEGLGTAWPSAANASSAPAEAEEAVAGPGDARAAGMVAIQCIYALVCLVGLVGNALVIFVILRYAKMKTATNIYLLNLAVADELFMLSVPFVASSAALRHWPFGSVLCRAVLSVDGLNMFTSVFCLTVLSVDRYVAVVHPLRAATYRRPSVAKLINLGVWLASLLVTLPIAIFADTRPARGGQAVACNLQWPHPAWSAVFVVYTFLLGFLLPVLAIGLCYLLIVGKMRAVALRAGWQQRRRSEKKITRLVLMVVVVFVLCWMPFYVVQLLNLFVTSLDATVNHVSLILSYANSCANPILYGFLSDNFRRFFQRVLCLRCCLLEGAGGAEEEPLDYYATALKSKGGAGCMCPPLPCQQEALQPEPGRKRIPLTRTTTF
T1 sequence (P30874 whole entry): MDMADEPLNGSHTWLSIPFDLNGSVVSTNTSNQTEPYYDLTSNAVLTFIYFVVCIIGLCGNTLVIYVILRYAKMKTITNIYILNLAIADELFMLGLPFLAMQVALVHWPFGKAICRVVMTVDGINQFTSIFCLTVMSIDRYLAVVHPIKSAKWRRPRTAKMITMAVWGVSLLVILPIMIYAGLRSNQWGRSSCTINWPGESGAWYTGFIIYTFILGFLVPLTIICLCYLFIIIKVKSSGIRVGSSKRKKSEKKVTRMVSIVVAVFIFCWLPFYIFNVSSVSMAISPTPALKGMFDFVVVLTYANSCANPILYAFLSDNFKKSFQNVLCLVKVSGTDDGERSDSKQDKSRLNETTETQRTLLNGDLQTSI

`CNc1ncc(-c2cc(C)cc(F)c2)c(N2CCC(N)CC2)c1-c1nc2cc(Cl)ccc2[nH]1` [Compound 1-28, 4-(4-aminopiperidin-1-yl)-3-(5-chloro-1H-1,3-benzodiazol-2-yl)-5-(3-fluoro-5-methylphenyl)-N-methylpyridin-2-amine]: the EC50 in assay [1] is under 10 nM. Further, the “hSST4/hSST2 (ratio)” value on hSSTR4 is given as “a (above 50)”.

Turning to `CCn1c(-c2c(N)ncc(-c3cc(C)cc(F)c3)c2N2CCC(N)CC2)nc2cc(F)c(F)cc21` [Compound 1-5, 4-(4-aminopiperidin-1-yl)-3-(1-ethyl-5,6-difluoro-1H-1,3-benzodiazol-2-yl)-5-(3-fluoro-5-methylphenyl)pyridin-2-amine], in assay [1], the EC50 is under 10 nM. Also, the “hSST4/hSST2 (ratio)” value on hSSTR4 is “b (between 15 and 50)”.

`Cc1cc(F)cc(-c2cnc(N)c(-c3nc4cccc(C)c4[nH]3)c2N2CCC(N)CC2)c1` [Compound 1-10, 4-(4-aminopiperidin-1-yl)-5-(3-fluoro-5-methylphenyl)-3-(7-methyl-1H-1,3-benzodiazol-2-yl)pyridin-2-amine]: the EC50 in assay [1] is under 10 nM. The “hSST4/hSST2 (ratio)” value at hSSTR4 is “c (between 2.5 and 15)”.

Turning to `COc1ccc2[nH]c(-c3c(N)ncc(-c4cc(C)cc(F)c4)c3N3CCC(N)CC3)nc2c1` [Compound 1-8, 4-(4-aminopiperidin-1-yl)-5-(3-fluoro-5-methylphenyl)-3-(5-methoxy-1H-1,3-benzodiazol-2-yl)pyridin-2-amine], in assay [1], the EC50 was under 10 nM. Besides, the “hSST4/hSST2 (ratio)” value on hSSTR4 is “b (between 15 and 50)”.

As for `COc1ccc2[nH]c(-c3c(OC)ncc(-c4cc(C)cc(F)c4)c3N3CCC(N)CC3)nc2c1` [Compound 2-3, 1-[5-(3-fluoro-5-methylphenyl)-2-methoxy-3-(5-methoxy-1H-1,3-benzodiazol-2-yl)pyridin-4-yl]piperidin-4-amine], the EC50 in assay [1] was under 10 nM. The “hSST4/hSST2 (ratio)” value at hSSTR4 was “a (above 50)”.

Consider `CNc1ncc(-c2cc(C)cc(F)c2)c(N2CCC(N)CC2)c1-c1nc2cccc(OC)c2[nH]1` [Compound 1-71, 4-(4-aminopiperidin-1-yl)-5-(3-fluoro-5-methylphenyl)-3-(7-methoxy-1H-1,3-benzodiazol-2-yl)-N-methylpyridin-2-amine], for which the EC50 in assay [1] was under 10 nM. In addition, at hSSTR4, the “hSST4/hSST2 (ratio)” value was “c (between 2.5 and 15)”.

`COc1cc(F)cc2nc(-c3c(C)ncc(-c4cc(C)cc(F)c4)c3N3CCC(N)CC3)[nH]c12` [Compound 2-15, 1-[3-(5-fluoro-7-methoxy-1H-1,3-benzodiazol-2-yl)-5-(3-fluoro-5-methylphenyl)-2-methylpyridin-4-yl]piperidin-4-amine]: in assay [1], the EC50 was under 10 nM. The “hSST4/hSST2 (ratio)” value on hSSTR4 was “c (between 2.5 and 15)”.

As to `COCCNc1ncc(-c2cc(C)cc(F)c2)c(N2CCC(N)CC2)c1-c1nc2c(F)cc(F)cc2[nH]1` [Compound 1-56], in assay [1], the EC50 was under 10 nM. The “hSST4/hSST2 (ratio)” value on hSSTR4 is listed as “a (above 50)”.

For `COc1cc(F)cc2nc(-c3c(N4CC(F)C4)ncc(-c4cc(C)cc(F)c4)c3N3CCC(N)CC3)[nH]c12` [Compound 4-7, 1-[3-(5-fluoro-7-methoxy-1H-1,3-benzodiazol-2-yl)-5-(3-fluoro-5-methylphenyl)-2-(3-fluoroazetidin-1-yl)pyridin-4-yl]piperidin-4-amine], the EC50 in assay [1] is under 10 nM. For the same compound, on hSSTR4, the “hSST4/hSST2 (ratio)” value was “a (above 50)”.

As to `CNc1ncc(-c2cc(C)cc(F)c2)c(N2CCC(N)CC2)c1-c1nc2cc(Cl)cc(F)c2[nH]1` [Compound 1-75, 4-(4-aminopiperidin-1-yl)-3-(5-chloro-7-fluoro-1H-1,3-benzodiazol-2-yl)-5-(3-fluoro-5-methylphenyl)-N-methylpyridin-2-amine], the EC50 in assay [1] was under 10 nM. The “hSST4/hSST2 (ratio)” value on hSSTR4 is on record as “a (above 50)”.

Consider `Cc1cc(F)cc(-c2cnc(N)c(-c3nc4cc(F)c(F)cc4n3C)c2N2CCC(N)CC2)c1` [Compound 1-57, 4-(4-aminopiperidin-1-yl)-3-(5,6-difluoro-1-methyl-1H-1,3-benzodiazol-2-yl)-5-(3-fluoro-5-methylphenyl)pyridin-2-amine], for which, in assay [1], the EC50 is under 10 nM. On hSSTR4, the “hSST4/hSST2 (ratio)” value is listed as “a (above 50)”.

Regarding `COc1ncc(-c2cc(C)cc(F)c2)c(N2CCC(N)CC2)c1-c1nc2cc(F)cc(F)c2[nH]1` [Compound 2-5, 1-[3-(5,7-difluoro-1H-1,3-benzodiazol-2-yl)-5-(3-fluoro-5-methylphenyl)-2-methoxypyridin-4-yl]piperidin-4-amine], the EC50 in assay [1] was under 10 nM. In addition, on hSSTR4, the “hSST4/hSST2 (ratio)” value is reported as “a (above 50)”.

As to `COc1cc(F)cc2nc(-c3c(N(C)C)ncc(-c4cc(C)cc(F)c4)c3N3CCC(N)CC3)[nH]c12` [Compound 4-6, 4-(4-aminopiperidin-1-yl)-3-(5-fluoro-7-methoxy-1H-1,3-benzodiazol-2-yl)-5-(3-fluoro-5-methylphenyl)-N,N-dimethylpyridin-2-amine], the EC50 in assay [1] is under 10 nM. Moreover, the “hSST4/hSST2 (ratio)” value on hSSTR4 was “b (between 15 and 50)”.

With `CCNc1ncc(-c2cc(C)cc(F)c2)c(N2CCC(N)CC2)c1-c1nc2cc(F)c(F)cc2[nH]1` [Compound 1-50, 4-(4-aminopiperidin-1-yl)-3-(5,6-difluoro-1H-1,3-benzodiazol-2-yl)-N-ethyl-5-(3-fluoro-5-methylphenyl)pyridin-2-amine], in assay [1], the EC50 is under 10 nM. The “hSST4/hSST2 (ratio)” value at hSSTR4 was “a (above 50)”.

Turning to `Cc1cc(F)cc(-c2cnc(N)c(-c3nc4cc(F)cc(OCC#N)c4[nH]3)c2N2CCC(N)CC2)c1` [Compound 1-74, 2-({2-[2-amino-4-(4-aminopiperidin-1-yl)-5-(3-fluoro-5-methylphenyl)pyridin-3-yl]-5-fluoro-1H-1,3-benzodiazol-7-yl}oxy)acetonitrile], the EC50 in assay [1] was under 10 nM. The “hSST4/hSST2 (ratio)” value at hSSTR4 is “c (between 2.5 and 15)”.

As for `Cc1cc(F)cc(-c2cnc(N)c(-c3nc4cc(Cl)cc(F)c4[nH]3)c2N2CCC(N)CC2)c1` [Compound 1-54, 4-(4-aminopiperidin-1-yl)-3-(5-chloro-7-fluoro-1H-1,3-benzodiazol-2-yl)-5-(3-fluoro-5-methylphenyl)pyridin-2-amine], in assay [1], the EC50 was under 10 nM. For the same compound, the “hSST4/hSST2 (ratio)” value on hSSTR4 is given as “a (above 50)”.

As to `CNc1ncc(-c2cc(C)cc(F)c2)c(N2CCC(N)CC2)c1-c1nc2cc(F)c(F)cc2[nH]1` [Compound 1-55, 4-(4-aminopiperidin-1-yl)-3-(5,6-difluoro-1H-1,3-benzodiazol-2-yl)-5-(3-fluoro-5-methylphenyl)-N-methylpyridin-2-amine], the EC50 in assay [1] was under 10 nM. Also, at hSSTR4, the “hSST4/hSST2 (ratio)” value was “a (above 50)”.

Turning to `COc1ncc(-c2cc(C)cc(F)c2)c(N2CCC(N)CC2)c1-c1nc2cc(Cl)ccc2[nH]1` [Compound 2-2, 1-[3-(5-chloro-1H-1,3-benzodiazol-2-yl)-5-(3-fluoro-5-methylphenyl)-2-methoxypyridin-4-yl]piperidin-4-amine], in assay [1], the EC50 is under 10 nM. The “hSST4/hSST2 (ratio)” value on hSSTR4 is listed as “a (above 50)”.

Take `Cc1cc(F)cc(-c2cnc(N3CCOCC3)c(-c3nc4cc(F)cc(F)c4[nH]3)c2N2CCC(N)CC2)c1` [Compound 4-8, 1-[3-(5,7-difluoro-1H-1,3-benzodiazol-2-yl)-5-(3-fluoro-5-methylphenyl)-2-(morpholin-4-yl)pyridin-4-yl]piperidin-4-amine]: the EC50 in assay [1] is under 10 nM. Moreover, the “hSST4/hSST2 (ratio)” value on hSSTR4 is on record as “a (above 50)”.

With `Cc1cc(F)cc(-c2cnc(N)c(-c3nc4cc(S(C)(=O)=O)ccc4[nH]3)c2N2CCC(N)CC2)c1` [Compound 1-53, 4-(4-aminopiperidin-1-yl)-5-(3-fluoro-5-methylphenyl)-3-(5-methanesulfonyl-1H-1,3-benzodiazol-2-yl)pyridin-2-amine], the EC50 in assay [1] was under 10 nM.

Take `Cc1cc(F)cc(-c2cnnc(-c3cc4ccc(C(N)=O)cc4[nH]3)c2N2CCC(N)CC2)c1` [Compound 3-19, 2-[4-(4-aminopiperidin-1-yl)-5-(3-fluoro-5-methylphenyl)pyridazin-3-yl]-1H-indole-6-carboxamide]: the EC50 in assay [1] is under 10 nM.

For `Cc1cc(F)cc(-c2cnnc(-c3nc4cc(F)ccc4[nH]3)c2N2CCC(N)CC2)c1` [Compound 3-13, 1-[3-(5-fluoro-1H-1,3-benzodiazol-2-yl)-5-(3-fluoro-5-methylphenyl)pyridazin-4-yl]piperidin-4-amine], the EC50 in assay [1] is under 10 nM.
